Measurements: EP1862466A2, “Arrays with cleavable linkers” (THE SCRIPPS RESEARCH INSTITUTE, priority 2004, dated 2006)
Blank lines part the entries; values can stand above or below the compound they belong to.

Key:
[1] = system: MBr1 anti-Globo H monoclonal antibody (IgM); assay: Microarray analysis of Globo H derivatives with MBr1 antibody; assay type: binding, mouse; settings: sugars spotted on NHS-coated glass slide; FITC secondary antibody
Description: NHS-coated glass slides were spotted with methanolic solutions of sugars 201-204a with concentrations of 5, 10, 20, 30, 40, 50, 60, 80 and 100 µM from bottom to top with ten duplicates horizontally placed in each grid. This attachment procedure is illustrated in FIG. 12. The slide was washed with PBS buffer for one minute.
This solution was added below the printed grid of sugars and then spread through the application of a coverslip. Incubation in a glass humidifying chamber was performed with shaking for 1 hour. Following this, the slide was washed 5x with 0.05 % tween20 / PBS buffer, 5x with PBS buffer and 5x with water. Next, 200 µL of a 70 µg/mL solution of FITC-tagged goat anti-mouse antibody (Cal Biochem) was formed and added to the slide as before. […] A fluorescence scan was then performed on the slide. The resulting image was analyzed using the program Imagene to locate and quantify the fluorescence of all the spots within the grid.
Disulfide linker immobilization (of type 217): The BOC protected derivative of disulfide linker 215 (3.9 mg, 13.5 µmol) was dissolved in 1 mL of dichloromethane and 1 mL trifluoroacetic acid was added. […] These solutions were spotted on a solid surface and analyzed along side 201-204a. […]
Images such as the one shown in FIG. 13 could then be processed using the program Imagene to encircle and quantify the fluorescence of each spot. […]

[2] = system: chST6GalNAc-I; assay: chST6GalNAc-I activity on small acceptor molecules (α-D-galacto derivatives); assay type: biochemical, chicken; settings: substance used as acceptor
From the text: The inventors have previously reported the cloning, expression, and characterization of chicken ST6GalNAc-I and its use in preparative synthesis of the O-linked sialoside antigens, STn-, α(2-6)SiaT-, α(2-3)SiaT- and Di-SiaT-antigen. Blixt, O.;Allin, K.;Pereira, L.;Datta, A. and Paulson, J. C., J. Am. Chem. Soc. 2002, 124, 5739-5746. Briefly, the recombinant enzyme was expressed in insect cells and purified by CDP-sepharose affinity chromatography to generate approximately 10 U/L of cell culture. The enzymatic activity was evaluated on a set of small acceptor molecules. […] Table 6. chST6GalNAc-I Activity of α-D-Galacto Derivatives

[3] = system: interaction between 2G12 and gp120; assay: Solution phase ELISA: oligomannose inhibition of 2G12 binding to gp120; set-up: species or system HIV-1; settings: oligomannose at 0.5 mM
Description: Enzyme-linked immunosorbent assay. Microtiter plate wells (flat bottom, Costar type 3690; Corning Inc.) were coated with 50 ng/well gp120JR-CSF overnight at 4°C. All subsequent steps were performed at room temperature. The wells were then washed four times with PBS/0.05% (vol/vol) Tween20 (Sigma) using a microplate washer (SkanWash 400, Molecular Devices) prior to blocking for 1 hr with 3% (mass/vol) BSA. IgG 2G12, diluted to 0.5 µg/mL (25 ng/well) with 1% (mass/vol) BSA/0.02% (vol/vol) Tween20/PBS (PBS-BT), was then added for 2 hrs to the antigen-coated wells in the presence of serially-diluted oligomannoses starting at 2mM. Unbound antibody was removed by washing four times, as described above. Bound 2G12 was detected with an alkaline phosphatase-conjugated goat anti-human IgG F(ab')2 antibody (Pierce) diluted 1:1000 in PBS-BT. After 1hr, the wells were washed four times and bound antibody was visualized with p-nitrophenol phosphate substrate (Sigma) and monitored at 405 nm.
Binding. Man9GlcNAc2 1 and deprotected oligomannoses 2-6 and 7-9 (see FIG. 17) were evaluated for their ability to inhibit the interaction between 2G12 and gp120 in a solution phase enzyme-linked immunosorbent assay (ELISA). […]

[4] = system: 2G12 antibody; assay: Carbohydrate microarray analysis, microtiter-based, Scatchard plot (Kd); assay type: binding, human; settings: microtiter plate array
Description: Carbohydrate microarray analysis. Ninety-six well NHS-coated microtiter plates (NoAb Biodiscoveries) were treated with 200 µL of a 1 mM methanolic solution of the amino-functionalized disulfide and alkyne containing linker (scheme V) containing 5 % diisopropylethylamine (DIEA) and incubated overnight at 4°C. The microtiter plate was then washed with 2 x 200 µL methanol and 2 x 200 µL water. Next, 200 µL solutions of azido-functionalized oligomannose derivatives 21-25 at varying concentrations from 0 to 500 µM in 5 % DIEA / methanol were introduced. A sprinkle of copper (I) iodide was added and the contents were allowed to react overnight at 4°C. The next day, the contents were removed and the plates were washed with 2 x 200 µL methanol and 2 x 200 µL water. The plates were then blocked with 0.1 % Tween20 solution in HEPES buffer pH 7.5 at 4 °C for 1 hour and then washed with 3 x 200 µL HEPES buffer. Next, 200 µL of a 1 µg/mL solution of 2G12 antibody in 0.1 % Tween20 / PBS buffer was added to the wells for a 1 hour incubation at 4 °C and then washed with 2 x 200 µL PBS buffer. At this point, 200 µL of FITC-tagged goat anti-human IgG antibody (10 µg/mL in PBS, Cal Biochem) was added for 1 hour at 4 °C, and the wells were then washed with 2 x 200 µL PBS buffer. Detection of the FITC-tagged secondary antibody was performed in 200 µL water using a fluorescence plate reader. The resulting data yielded the oligomannose-2G12 binding isotherms and Scatchard plot analysis was implemented in the determination of dissociation constants. Adams et al. (2004) Chem. Biol. 11: 875-81.
Overall, many of the oligomannose derivatives can compete for binding of Man9GlcNAc2, and, therefore, may serve as building blocks for potential immunogens to elicit 2G12-like antibodies. Carbohydrate Microarray Analysis. Previous studies by the inventors using covalent microtiter plates with a panel of carbohydrate epitopes for interaction with 2G12 involved converting the amine-containing oligomannoses 4, 5, 7, 8 and 9 to the corresponding azide derivatives 21, 22, 23, 24 and 25. These derivatives were then covalently attached to a microplate-immobilized cleavable linker via the Cu (I)-catalyzed 1,3-dipolar cycloaddition reaction (FIG. 11B). Kd values for the interaction of 2G12 with oligomannoses 4, 5, 7, 8, 9 (Table 9) were determined using a microtiter-based assay with detection via a fluorescent secondary antibody (see Bryan et al.(2004) J. Am. Chem. Soc. 126, 8640-41). Table 9: The Kd values of oligomannoses 1 and 4, 5, 7, 8, 9 binding to 2G12, as determined by carbohydrate microarray analysis.

SMILES: C[C@@H]1O[C@@H](O[C@H]2[C@H](OCCCCCN)O[C@H](CO)[C@H](O)[C@@H]2O)[C@@H](O)[C@H](O)[C@@H]1O [Compound 201a]
- binding of MBr1 antibody to immobilized sugar (in words) [1]: no recruitment of antibody to the surface

- binding of MBr1 antibody to immobilized sugar (in words) [1]: greatest affinity
SMILES: CC(=O)N[C@H]1[C@H](O[C@H]2[C@@H](O)[C@@H](CO)O[C@H](O[C@@H]3[C@H](O)[C@@H](O)[C@H](O[C@H]4[C@H](O)[C@@H](O)[C@H](OCCCCCN)O[C@@H]4CO)O[C@@H]3CO)[C@@H]2O)O[C@H](CO)[C@H](O)[C@@H]1O[C@@H]1O[C@H](CO)[C@H](O)[C@H](O)[C@H]1O[C@@H]1O[C@@H](C)[C@@H](O)[C@@H](O)[C@@H]1O [Compound 204a]

SMILES: CC(=O)N[C@H]1C(O)O[C@H](CO)[C@H](O)[C@@H]1O (stereo partly drawn) [D-GalNAc]
- chST6GalNAc-I Activity, cpm [2]: 0 cpm
- chST6GalNAc-I Activity, nmol/mg x min^-1 [2]: 0.00 nmol/mg x min^-1

SMILES: NCCCCCO[C@H]1O[C@H](CO[C@H]2O[C@H](CO)[C@@H](O)[C@H](O)[C@@H]2O[C@H]2O[C@H](CO)[C@@H](O)[C@H](O)[C@@H]2O)[C@@H](O)[C@H](O[C@H]2O[C@H](CO)[C@@H](O)[C@H](O)[C@@H]2O[C@H]2O[C@H](CO)[C@@H](O)[C@H](O)[C@@H]2O)[C@@H]1O [Oligomannose 5]
- inhibition (%) of 2G12 binding to gp120 [3]: 37.7%
- affinity for 2G12 antibodies (in words) [4]: greatest affinity
